From US8889712B2, “IAP antagonists” (Bristol-Myers Squibb Company, priority 2012, dated 2014)
Where a name gives a salt, the structure may show the parent alone. Read-outs that look alike come from different tables or passages of the source.

Assays:
XIAP BIR3 = target: T1, XIAP BIR3 (Homo sapiens, UniProt P98170); assay: XIAP-BIR3/SMAC Homogeneous Time Resolved Fluorescence (HTRF) Assay; assay type: binding
T1 construct: His-BIR3 (241-356, XIAP)
Procedure, shortened: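 Competition HTRF between XIAP-BIR3 and SMAC; reaction 60 min at room temperature, then anti-6×His-terbium Fab detection for a further 30 min.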

XIAP BIR2-3 = target: T2, XIAP BIR2-3 (Homo sapiens, UniProt P98170, C202A/C213G); assay: XIAP-BIR2-3 dimeric SMAC Peptide Homogeneous Time Resolved Fluorescence (HTRF) Assay; assay type: binding
T2 construct: His-BIR2-3 (125-356, C202A/C213G, XIAP)
T2 sequence (P98170 125-356 C202A/C213G): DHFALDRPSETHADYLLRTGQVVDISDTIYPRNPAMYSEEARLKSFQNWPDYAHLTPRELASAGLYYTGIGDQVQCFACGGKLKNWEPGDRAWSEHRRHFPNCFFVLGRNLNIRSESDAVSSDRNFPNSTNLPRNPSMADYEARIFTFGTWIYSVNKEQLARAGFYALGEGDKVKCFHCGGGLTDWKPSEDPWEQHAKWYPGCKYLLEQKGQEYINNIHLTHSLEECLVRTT
Description: B. […] Assays were performed in black, flat-bottom, 384-well plates. […] Compounds were dissolved at 3 mM in dimethylsulfoxide (DMSO) and evaluated at eleven serially diluted concentrations. IC50 and Ki values were derived by non-linear regression analysis.

[1] = 1 nM N-His-BIR3 (241-356, XIAP), 5 nM fluorescein labeled SMAC peptide, HTRF signal, read-out: XIAP BIR3 IC50
[2] = 0.5 nM N-His-BIR2-3 (125-356, C202A/C213G, XIAP), 20 nM fluorescein labeled dimeric SMAC peptide, HTRF signal, read-out: XIAP BIR2-3 IC50

T1 sequence (P98170 241-356): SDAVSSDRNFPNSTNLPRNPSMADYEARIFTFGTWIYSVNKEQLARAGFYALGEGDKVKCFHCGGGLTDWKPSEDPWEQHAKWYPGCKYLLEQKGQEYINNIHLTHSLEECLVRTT

Compound	IC50 (XIAP BIR3; [1])	IC50 (XIAP BIR2-3; [2])	IC50 (XIAP BIR3)	IC50 (XIAP BIR2-3)
CN[C@@H](C)C(=O)N[C@H](C(=O)N1Cc2cc([C@H]3C[C@@H](C(=O)N[C@@H](Cc4ccc5ccccc5c4)C(=O)OC)N(C(=O)[C@@H](NC(=O)[C@H](C)NC)C(C)(C)C)C3)ccc2C[C@H]1C(=O)N[C@@H](Cc1ccc2ccccc2c1)C(=O)OC)C(C)(C)C [Example 82, (S)-Methyl 2-((2S,4R)-1-((S)-3,3-dimethyl-2-((S)-2-(methylamino)propanamido)butanoyl)-4-((S)-2-((S)-3,3-dimethyl-2-((S)-2-(methylamino)propanamido)butanoyl)-3-(((S)-1-methoxy-3-(naphthalen-2-yl)-1-oxopropan-2-yl)carbamoyl)-1,2,3,4-tetrahydroisoquinolin-7-yl)pyrrolidine-2-carboxamido)-3-(naphthalen-2-yl)propanoate]	0.111 µM	0.0682 µM	–	–
CN[C@@H](C)C(=O)N[C@H](C(=O)N1Cc2cc([C@H]3C[C@@H](C(=O)N[C@@H](Cc4ccc5ccccc5c4)C(=O)O)N(C(=O)[C@@H](NC(=O)[C@H](C)NC)C(C)(C)C)C3)ccc2C[C@H]1C(=O)N[C@@H](Cc1ccc2ccccc2c1)C(=O)O)C(C)(C)C [Example 83, (S)-2-((S)-7-((3R,5S)-5-(((S)-1-Carboxy-2-(naphthalen-2-yl)ethyl)carbamoyl)-1-((S)-3,3-dimethyl-2-((S)-2-(methylamino)propanamido)butanoyl)pyrrolidin-3-yl)-2-((S)-3,3-dimethyl-2-((S)-2-(methylamino)propanamido)butanoyl)-1,2,3,4-tetrahydroisoquinoline-3-carboxamido)-3-(naphthalen-2-yl)propanoic acid]	0.0192 µM	0.0262 µM	–	–
CN[C@@H](C)C(=O)N[C@H](C(=O)N1Cc2cc([C@H]3C[C@@H](C(=O)N[C@H](COC)Cc4ccccc4)N(C(=O)[C@@H](NC(=O)[C@H](C)NC)C(C)(C)C)C3)ccc2C[C@H]1C(=O)N[C@H](COC)Cc1ccccc1)C(C)(C)C [Example 84, (S)-2-((S)-3,3-Dimethyl-2-((S)-2-(methylamino)propanamido)butanoyl)-7-((3R,5S)-1-((S)-3,3-dimethyl-2-((S)-2-(methylamino)propanamido)butanoyl)-5-(((S)-1-methoxy-3-phenylpropan-2-yl)carbamoyl)pyrrolidin-3-yl)-N-((S)-1-methoxy-3-phenylpropan-2-yl)-1,2,3,4-tetrahydroisoquinoline-3-carboxamide]	0.0314 µM	0.0081 µM	–	–
CN[C@@H](C)C(=O)N[C@H](C(=O)N1Cc2cc([C@H]3C[C@@H](C(=O)N[C@@H](Cc4ccccc4)C(=O)OC)N(C(=O)[C@@H](NC(=O)[C@H](C)NC)C(C)(C)C)C3)ccc2C[C@H]1C(=O)N[C@@H](Cc1ccccc1)C(=O)OC)C(C)(C)C [Example 85, (S)-Methyl 2-((2S,4R)-1-((S)-3,3-dimethyl-2-((S)-2-(methylamino)propanamido)butanoyl)-4-((S)-2-((S)-3,3-dimethyl-2-((S)-2-(methylamino)propanamido)butanoyl)-3-(((S)-1-methoxy-1-oxo-3-phenylpropan-2-yl)carbamoyl)-1,2,3,4-tetrahydroisoquinolin-7-yl)pyrrolidine-2-carboxamido)-3-phenylpropanoate]	–	–	0.0148 µM	0.0062 µM
CN[C@@H](C)C(=O)N[C@H](C(=O)N1Cc2cc([C@H]3C[C@@H](C(=O)N[C@@H](Cc4ccccc4)C(=O)O)N(C(=O)[C@@H](NC(=O)[C@H](C)NC)C(C)(C)C)C3)ccc2C[C@H]1C(=O)N[C@@H](Cc1ccccc1)C(=O)O)C(C)(C)C [Example 86, (S)-2-((S)-7-((3R,5S)-5-(((S)-1-Carboxy-2-phenylethyl)carbamoyl)-1-((S)-3,3-dimethyl-2-((S)-2-(methylamino)propanamido)butanoyl)pyrrolidin-3-yl)-2-((S)-3,3-dimethyl-2-((S)-2-(methylamino)propanamido)butanoyl)-1,2,3,4-tetrahydroisoquinoline-3-carboxamido)-3-phenylpropanoic acid]	0.005 µM	0.0027 µM	–	–
(S)-2-((S)-3-Cyclopentyl-2-((S)-2-(methylamino) propanamido)propanoyl)-N^7-((3S,5S)-1-((S)-3,3-dimethyl-2- ((S)-2-(methylamino)propanamido)butanoyl)-5-(((R)-1,2,3,4- tetrahydronaphthalen-1-yl)carbamoyl)pyrrolidin-3-yl)-N^3- ((R)-1,2,3,4-tetrahydronaphthalen-1-yl)-1,2,3,4- tetrahydroisoquinoline-3,7-dicarboxamide [Example 6]	0.014 µM	0.002 µM	–	–

More lines, main results first:

IC50 (XIAP BIR3; [1])	IC50 (XIAP BIR2-3; [2])	Compound	IC50 (XIAP BIR3)	IC50 (XIAP BIR2-3)
0.0073 µM	0.0059 µM	CN[C@@H](C)C(=O)N[C@H](C(=O)N1CC(c2ccc3c(c2)CN(C(=O)[C@@H](NC(=O)[C@H](C)NC)C24CC5CC(CC(C5)C2)C4)[C@H](C(=O)NC2CCCc4ccccc42)C3)C[C@H]1C(=O)NC1CCCc2ccccc21)C(C)(C)C (stereo partly drawn) [Example 87, (S)-2-((S)-2-((3S,5S,7S)-Adamantan-1-yl)-2-((S)-2-(methylamino)propanamido)acetyl)-7-((3R,5S)-1-((S)-3,3-dimethyl-2-((S)-2-(methylamino)propanamido)butanoyl)-5-(((R)-1,2,3,4-tetrahydronaphthalen-1-yl)carbamoyl)pyrrolidin-3-yl)-N—((R)-1,2,3,4-tetrahydronaphthalen-1-yl)-1,2,3,4-tetrahydroisoquinoline-3-carboxamide, 2 TFA]	–	–
0.009 µM	0.0026 µM	CN[C@@H](C)C(=O)N[C@H](C(=O)N1C[C@@H](NC(=O)c2ccc3c(c2)CN(C(=O)[C@@H](NC(=O)[C@H](C)NC)C24CC5CC(CC(O)(C5)C2)C4)[C@H](C(=O)NC2CCCc4ccccc42)C3)C[C@H]1C(=O)NC1CCCc2ccccc21)C(C)(C)C (stereo partly drawn) [Example 88, (S)-N^7-((3S,5S)-1-((S)-3,3-dimethyl-2-((S)-2-(methylamino)propanamido)butanoyl)-5-(((R)-1,2,3,4-tetrahydronaphthalen-1-yl)carbamoyl)pyrrolidin-3-yl)-2-((S)-2-((1r,3R,5R,7S)-3-hydroxyadamantan-1-yl)-2-((S)-2-(methylamino)propanamido)acetyl)-N^3-((R)-1,2,3,4-tetrahydronaphthalen-1-yl)-1,2,3,4-tetrahydroisoquinoline-3,7-dicarboxamide]	–	–
0.0378 µM	0.36 µM	CN[C@@H](C)C(=O)N[C@H](C(=O)N1Cc2cc(C(=O)N[C@H]3C[C@@H](C(=O)N[C@@H]4CCCc5ccccc54)N(C(=O)[C@@H](NC(=O)[C@H](C)NC)C(C)(C)C)C3)ccc2C[C@H]1C(=O)N[C@@H]1CCCc2ccccc21)C(c1ccccc1)c1ccccc1 [Example 89, (S)-N^7-((3S,5S)-1-((S)-3,3-dimethyl-2-((S)-2-(methylamino)propanamido)butanoyl)-5-(((R)-1,2,3,4-tetrahydronaphthalen-1-yl)carbamoyl)pyrrolidin-3-yl)-2-((S)-2-((S)-2-(methylamino)propanamido)-3,3-diphenylpropanoyl)-N^3-((R)-1,2,3,4-tetrahydronaphthalen-1-yl)-1,2,3,4-tetrahydroisoquinoline-3,7-dicarboxamide]	–	–
